Where no end group is shown, it is not given here.

Two substances from patent publication US12630585B2, “Antibacterial tryglysin agents” (The Trustees of Princeton University, priority 2020, dated 2026) can be followed below.

One assay has as its system S. sanguinis ATCC 10556. Kind of assay: Culture growth upon treatment with 100 nM antibiotic. In kind it is cell-based, Streptococcus sanguinis. More on the design: key to Inhibition By (S. sanguinis ATCC 10556): “−” indicates not inhibited; “+” indicates mildly inhibited; “++” indicates inhibited. The procedure:
(§1) Other streptococcal species have similar dose-dependent growth inhibitory responses to tryglysins. WGK peptides inhibit growth of several streptococcal species, but not E. faecalis or L. lactis. We extended the evaluation of tryglysin inhibitory activity to other bacterial species. Culture growth rates of several Gram-positive species were evaluated upon treatment with 100 nM each antibiotic. Most susceptible to treatments, with complete growth inhibition at only 100 nM tryglysins, were strains of S. mitis, S. oralis, and S. pneumoniae, each being members of the mitis group. […] Unaffected were cultures of S. pyogenes, Lactococcus lactis, and Enterococcus faecalis (FIG. S4A to F).
(§2) It can also be seen that the disclosed peptides inhibit growth of several streptococcal species, but not others outside of streptococcal species, such as E. faecalis or L. lactis.
(§3) Specifically, bacterial strains were grown from prestored glycerol stocks at −80° C. and inoculated into THY broth. Strains were incubated overnight at 37° C. in an atmosphere of 5% CO2, and the next morning, they were washed and resuspended in fresh, prewarmed CDM as described above in Example 4.

The subject of a further assay is S. mitis CCUG 31611. The description is as above. In kind it is cell-based, Streptococcus mitis. More on the design: key: “−” indicates not inhibited; “+” indicates mildly inhibited; “++” indicates inhibited. The procedure: as §1, §2, §3
The subject of the next assay is S. ferus. Kind of assay: Dose-dependent growth inhibition of cultures with tryglysin titrations over 9 hours. In kind it is cell-based, Streptococcus ferus. As to conditions: 9-h growth assay. The procedure: (§4) Growth inhibition of S. mutans and S. ferus cultures was tested with titrations of both tryglysin A and B over a period of 9 hours.
Referring to FIG. 3B, the dose-dependent growth inhibition of S. ferus by Triglysin A can be seen. Cultures exposed to no tryglysin A 311, 10 nM tryglysin A 312, and 100 nM tryglysin A 313 can be seen.
Referring to FIG. 3D, the dose-dependent growth inhibition of S. ferus by Triglysin B can be seen. Cultures exposed to no tryglysin B 331, 10 nM tryglysin B 332, and 100 nM tryglysin B 333 can be seen.

The next assay has as its system S. mutans UA159. Kind of assay: Culture growth upon treatment with 100 nM antibiotic. In kind it is cell-based, Streptococcus mutans. More on the design: key: “−” indicates not inhibited; “+” indicates mildly inhibited; “++” indicates inhibited. The procedure:
as §1, §2, §3

The test system of another assay is S. oralis 108. The assay is described as above. In kind it is cell-based, Streptococcus oralis. More on the design: key: “−” indicates not inhibited; “+” indicates mildly inhibited; “++” indicates inhibited. The procedure:
as §1, §2, §3

The subject of assay [1] is S. mutans. Description: Dose-dependent growth inhibition of cultures with tryglysin titrations over 9 hours. In kind it is cell-based, Streptococcus mutans. On the procedure: as §4
Referring to FIG. 3A, the dose-dependent growth inhibition of S. mutans by Triglysin A can be seen. Cultures exposed to no tryglysin A 301, 10 nM tryglysin A 302, 100 nM tryglysin A 303, and 1 μM tryglysin A 304 can be seen.
Referring to FIG. 3C, the dose-dependent growth inhibition of S. mutans by Triglysin B can be seen. Cultures exposed to no tryglysin B 321, 10 nM tryglysin B 322, 100 nM tryglysin B 323, and 1 μM tryglysin B 324 can be seen.

The next assay relates to E. faecalis V583. Kind of assay: Culture growth upon treatment with 100 nM antibiotic. In kind it is cell-based, Enterococcus faecalis. More on the design: key: “−” indicates not inhibited; “+” indicates mildly inhibited; “++” indicates inhibited. The procedure:
as §1, §2, §3

The subject of another assay is S. agalactiae A909. Described as above. More on the design: key to Inhibition By (S. agalactiae A909): “−” indicates not inhibited; “+” indicates mildly inhibited; “++” indicates inhibited. In kind it is cell-based, Streptococcus agalactiae. The procedure:
as §1, §2, §3

The next assay concerns S. pyogenes NZ131. The assay is described as above. In kind it is cell-based, Streptococcus pyogenes. More on the design: key: “−” indicates not inhibited; “+” indicates mildly inhibited; “++” indicates inhibited. On the procedure: as §1, §2, §3
Assay [2] has as its system S. mutans. Description: Morphological changes (cell chaining) by microscopy after tryglysin treatment. In kind it is cell-based, Streptococcus mutans. The following applies: 100 nM. On the procedure:
FIG. 4 is a graph showing the quantification of chains greater than three cells in length for S. mutans exposed to 100 nM tryglysin A for 2 h, 5 h, or 7 h. A minimum of 100 cells were observed per condition and time point. −, no tryglysin A; +, 100 nM tryglysin A. **, P<0.01; ns, not significant by one-way ANOVA with Dunnet's multiple comparison posttest.
The impact of tryglysins on gross morphological changes to cell shape was examined at 2, 5, and 7 h after treatment with 100 nM tryglysin A or B by microscopy.
Prestored glycerol stocks of S. mutans strains at −80° C. were inoculated into THY broth and incubated overnight at 37° C. in an atmosphere of 5% CO2. CDM was prepared and prewarmed at 37° C. in an atmosphere of 5% CO2 overnight. The next morning, strains were transferred to sterile 15-ml conical tubes and centrifuged at room temperature at 4,000×g for 10 min. Strains were resuspended in 1 ml prewarmed CDM, transferred to microcentrifuge tubes, and centrifuged again at room temperature at 14,000×g for 5 min. Supernatant was discarded, and strains were resuspended in 1 ml fresh prewarmed CDM. Resuspended strains were then inoculated into 6 ml prewarmed CDM at 1:200 dilution. At each time point, strains were monitored by measuring OD600 with a GENESYS 30 Vis spectrophotometer (Thermo-Fisher)
If required, at 1 h postinoculation, 100 nM tryglysin A or B was added to the media. For microscopic analysis of samples, 2 ml of live cells was taken at 2 h, 5 h, and 7 h after the addition of tryglysins and examined using an Olympus CKX53 inverted microscope with a 40× LCACHN-iPC infinity objective (LCACHN40XIPC; numerical aperture, 0.55) connected to a SC50 camera (Olympus). Images were processed using Olympus Stream Image Analysis software (Olympus).

The next assay concerns L. lactis ATCC 11454. Description: Culture growth upon treatment with 100 nM antibiotic. More on the design: key: “−” indicates not inhibited; “+” indicates mildly inhibited; “++” indicates inhibited. In kind it is cell-based, Lactococcus lactis. The procedure: as §1, §2, §3
A further assay concerns S. bovis JB1. The assay is described as above. In kind it is cell-based, Streptococcus bovis. More on the design: key to Inhibition By (S. bovis JB1): “−” indicates not inhibited; “+” indicates mildly inhibited; “++” indicates inhibited. The procedure: as §1, §2, §3
For the next assay, the system named is S. gordonii Challis Bt. Described as above. In kind it is cell-based, Streptococcus gordonii. More on the design: key: “−” indicates not inhibited; “+” indicates mildly inhibited; “++” indicates inhibited. On the procedure: as §1, §2, §3
The test system of another assay is S. pneumoniae D39. The description is as above. In kind it is cell-based, Streptococcus pneumoniae. More on the design: key: “−” indicates not inhibited; “+” indicates mildly inhibited; “++” indicates inhibited. On the procedure: as §1, §2, §3
The subject of another assay is S. ferus DSM 20646. Described as above. In kind it is cell-based, Streptococcus ferus. More on the design: key: “−” indicates not inhibited; “+” indicates mildly inhibited; “++” indicates inhibited. On the procedure:
as §1, §2, §3

The mark [3] stands for this setting: to a lower degree than for S. agalactiae.

As to “Tryglysin B (VNCWGKH; bridge (positions not given here); also: macrocyclic, tetrahydro[5,6]benzindole modification, places not given here; listed as Streptococcus ferus)”, the “Inhibition By (S. sanguinis ATCC 10556)” value in the assay with S. sanguinis ATCC 10556 is “++”. Moreover, the “Inhibition By (S. mitis CCUG 31611)” value with S. mitis CCUG 31611 is on record as “++”. In addition, the “growth inhibition of S. ferus” value in the assay with S. ferus (10 nM) is “minimal inhibition”; in the assay with S. ferus (100 nM), “compete inhibition”. In the assay with S. mutans UA159, the “Inhibition By (S. mutans UA159)” value was “++”. Moreover, in the assay with S. oralis 108, the “Inhibition By (S. oralis 108)” value is given as “++”. For the same substance, the “growth inhibition of S. mutans” value in the assay with S. mutans [1] (10 nM, 9-h growth assay) is “some inhibition”. Further, the “concentration required for significant growth inhibition of S. mutans” value in the assay with S. mutans [1] (9-h growth assay) is given as “at least 100 nM”. In addition, the “concentration required for S. mutans to be completely inhibited” value in the assay on S. mutans [1] (over the 9-h growth assay) was 1 µM. Besides, in the assay with E. faecalis V583, the “Inhibition By (E. faecalis V583)” value is on record as “−”. The “Inhibition By (S. agalactiae A909)” value with S. agalactiae A909 is “+”. Also, the “Inhibition By (S. pyogenes NZ131)” value in the assay on S. pyogenes NZ131 is “−”. Also, the “chaining of S. mutans cells (chains greater than three cells in length)” value with S. mutans [2] (5 h after addition) and with S. mutans [2] (7 h after addition) was “appeared to do the same” each time. For the same substance, in the assay on L. lactis ATCC 11454, the “Inhibition By (L. lactis ATCC 11454)” value is reported as “−”. Moreover, the “Inhibition By (S. bovis JB1)” value with S. bovis JB1 is on record as “+”. Further, the “Inhibition By (S. gordonii Challis Bt)” value in the assay with S. gordonii Challis Bt is listed as “+”. For the same substance, in the assay with S. pneumoniae D39, the “Inhibition By (S. pneumoniae D39)” value was “++”. Besides, the “Inhibition By (S. ferus DSM 20646)” value in the assay with S. ferus DSM 20646 is “++”.

Regarding “Tryglysin A (VNSWGKH; bridge (positions not given here); also: macrocyclic, tetrahydro[5,6]benzindole modification, places not given here)”, the “Inhibition By (S. sanguinis ATCC 10556)” value in the assay on S. sanguinis ATCC 10556 was “++”. Besides, the “inhibitory activity against S. sanguinis compared with variant B” value in the assay with S. sanguinis ATCC 10556 (setting [3]) is listed as “greater inhibitory activity”. Besides, the “Inhibition By (S. mitis CCUG 31611)” value in the assay with S. mitis CCUG 31611 is “++”. Besides, the “growth inhibition of S. ferus” value in the assay on S. ferus (10 nM) is recorded as “Significant growth inhibition”; in the assay on S. ferus (100 nM) it was “complete inhibition”. Moreover, the “Inhibition By (S. mutans UA159)” value in the assay on S. mutans UA159 is recorded as “++”. Moreover, the “Inhibition By (S. oralis 108)” value in the assay on S. oralis 108 was “++”. The “growth inhibition of S. mutans” value is “Significant growth inhibition” in the assay with S. mutans [1] (10 nM, 9-h growth assay); “further inhibition” in the assay on S. mutans [1] (100 nM, 9-h growth assay); “further inhibition” with S. mutans [1] (1 μM, 9-h growth assay). Moreover, in the assay with E. faecalis V583, the “Inhibition By (E. faecalis V583)” value was “−”. Further, in the assay with S. agalactiae A909, the “Inhibition By (S. agalactiae A909)” value is listed as “++”. Moreover, the “inhibitory activity against S. agalactiae compared with variant B” value in the assay with S. agalactiae A909 is on record as “greater inhibitory activity”. Also, in the assay on S. pyogenes NZ131, the “Inhibition By (S. pyogenes NZ131)” value is listed as “−”. In addition, the “chaining of S. mutans cells (chains greater than three cells in length)” value with S. mutans [2] (5 h after addition) and with S. mutans [2] (7 h after addition) was “significantly increased” each time. The “Inhibition By (L. lactis ATCC 11454)” value in the assay on L. lactis ATCC 11454 was “−”. The “Inhibition By (S. bovis JB1)” value in the assay with S. bovis JB1 was “+”. In addition, in the assay with S. bovis JB1 (setting [3]), the “inhibitory activity against S. bovis compared with variant B” value is on record as “greater inhibitory activity”. Further, in the assay on S. gordonii Challis Bt, the “Inhibition By (S. gordonii Challis Bt)” value is reported as “+”. Besides, the “Inhibition By (S. pneumoniae D39)” value in the assay on S. pneumoniae D39 is on record as “++”. Moreover, in the assay on S. ferus DSM 20646, the “Inhibition By (S. ferus DSM 20646)” value is “++”.
